Tests used:
[1] = Solubility of the salt compared to the free acid (methanol rinse); assay type: physicochemical
Text: The neutralized product is then rinsed with a rinsing agent, for example, methanol, to remove other acid by-products, such as hydrochloric and sulfuric acids, and/or mono-sulfonic acids, and/or to remove other salts formed by the neutralization, such as salts of hydrochloric and sulfuric acids, and/or mono-sulfonic acids. It was discovered that […] solvents, such as methanol, would remove the by-product acids and/or salts, while leaving the salt of 2,4-pentanedione-1,5 disulfonic acid primarily undissolved.
The neutralized product was then rinsed several times with methanol to remove by-product acids, or any salts formed therefrom, while leaving the 2,4-pentanedione-1,5-sodium disulfonate primarily undissolved. […] The rinsed product was dried in a vacuum oven and filtered through a 300 mesh screen to afford a flowing pale orange/red powder. The resulting powder was 2,4-pentanedione-1,5-sodium disulfonate.

acartia tonsa = experiment: Toxicity to crustacean, ISO 14669; assay type: in vivo
Text: (§1) According to still other embodiments described herein, a disulfonate salt of 2,4-pentanedione is provided. According to one such embodiment, the salt comprises 2,4-pentanedione-1,5-sodium disulfonate. According to another such embodiment, a disulfonate salt of 2,4-pentanedione has an environmentally acceptable toxicity. As used herein, the term “environmentally acceptable toxicity” means that, when tested according to procedures that are the same as or equivalent to those set forth by the OSPAR Guidelines for Completing the Harmonised Offshore Chemical Notification Format (HOCNF) (References number: 2003-1) that were in effect on Dec. 31, 2004, the salt is determined to have a toxicity of greater than about 10,000 mg/L for an algae (skeletonema costatum), a crustacean (acartia tonsa), a fish (scopthalmus) and a sediment reworker (corophium volutator). […]
(§2) In this Example 3, the toxicity results for the skeletonema costatum were determined according to ISO (International Organization for Standardization) 10253, the protocol for which is known to those of ordinary skill in the art, and is also the protocol required under the above-referenced HOCNF Guidelines. The toxicity results for the acartia tonsa were determined according to ISO 14669, the protocol for which is known to those of ordinary skill in the art. […]

corophium volutator = experiment: Toxicity to sediment reworker, Part B of the OSPAR Protocols; assay type: in vivo
Text: as §1, §2

skeletonema costatum = experiment: Toxicity to algae, ISO 10253 (HOCNF); assay type: in vivo
Text: as §1, §2

scopthalmus = experiment: Toxicity to fish, Part B of the OSPAR Protocols; assay type: in vivo
Text: as §1, §2

Question: For `O=C(CC(=O)CS(=O)(=O)[O-])CS(=O)(=O)[O-].[Na+].[Na+]` [2,4-pentanedione-1,5-sodium disulfonate], which “solubility compared to the 2,4-pentanedione-1,5-disulfonic free acid” value [1] is on record?
Answer: significantly less soluble

Question: What about the “toxicity (amount required to kill or incapacitate half the test population)” value (from here on “toxicity”) (acartia tonsa) of the same compound?
Answer: greater than 10,000 mg/L

Question: And the “toxicity” value (corophium volutator)?
Answer: greater than 10,000 mg/L

Question: And the “toxicity” value (skeletonema costatum)?
Answer: greater than 10,000 mg/L

Question: What about the “toxicity” value (scopthalmus) of the same compound?
Answer: greater than 10,000 mg/L
